Experiment: mn = molality of the nth substance listed, in mol/kg
Details: 87 kPa, Liquid, Vibrating tube method

CCn1cc[n+](C)c1.[Cl-] [1-ethyl-3-methylimidazolium chloride] + O
mass density [kg/m3]
Details	m1 = 0.0532	m1 = 0.1024	m1 = 0.1528	m1 = 0.2049	m1 = 0.2529	m1 = 0.3082	m1 = 0.3571	m1 = 0.4077	m1 = 0.459	m1 = 0.5026
293.15 K	998.82	999.41	1000.01	1000.63	1001.2	1001.84	1002.41	1002.99	1003.56	1004.05
298.15 K	997.66	998.23	998.82	999.43	999.98	1000.61	1001.17	1001.73	1002.29	1002.77
303.15 K	996.25	996.81	997.39	997.98	998.52	999.14	999.68	1000.24	1000.79	1001.26
308.15 K	994.62	995.17	995.74	996.32	996.85	997.46	997.99	998.53	999.08	999.54
313.15 K	992.79	993.34	993.9	994.48	995.01	995.61	996.13	996.67	997.21	997.67
